Key:
Mus musculus [1] = species on record: Mus musculus; test: Effective dose against pentylenetetrazole (PTZ) induced anticonvulsant activity in mice; type: functional
Mus musculus [2] = species on record: Mus musculus; test: Effective dose against maximal electroshock (MES) induced convulsants in mice; type: functional
[3] = Lethal dose tested against mice; type: toxicity; conditions: mouse, in vivo
Mus musculus [4] = test: Effective dose against pentylenetetrazole (PTZ) induced anticonvulsant activity in presence of flumazenil at 10 mg/kg in mice; range: 1.5-4.1; type: functional
Mus musculus [5] = species on record: Mus musculus; test: animal or person
Description: Effective dose against pentylenetetrazole (PTZ) induced anticonvulsant activity in presence of flumazenil at 10 mg/kg in mice; Range: 1.1-2

Mus musculus [6] = species on record: Mus musculus; test: animal or person; remark: listed apart in the source

SMILES | ED50 (Mus musculus [1]) | ED50 (Mus musculus [2]) | LD50 [3] | ED50 (Mus musculus [4]) | ED50 (Mus musculus [5]) | ED50 (Mus musculus [6])
CSc1nnc(-c2ccccc2OCc2ccccc2)o1 | 91.2 mg/kg | > 100 mg/kg | > 300 mg/kg |  |  | 
Nc1nnc(-c2ccccc2OCc2ccc(F)cc2)o1 | 2.5 mg/kg | 3.3 mg/kg | > 300 mg/kg | 2.5 mg/kg |  | 
CCSc1nnc(-c2ccccc2OCc2ccccc2)o1 | > 100 mg/kg | > 100 mg/kg | > 300 mg/kg |  |  | 
c1ccc(COc2ccccc2-c2nnc(SCc3ccccc3)o2)cc1 | > 100 mg/kg | > 100 mg/kg | > 300 mg/kg |  |  | 
Sc1nnc(-c2ccccc2OCc2ccccc2)o1 | > 100 mg/kg | ≥ 100 mg/kg | > 300 mg/kg |  |  | 
Nc1nnc(-c2ccccc2OCc2ccccc2)o1 | 85.2 mg/kg | 63.2 mg/kg | > 300 mg/kg |  |  | 
Nc1nnc(-c2ccccc2OCc2ccc(Cl)cc2)o1 | > 100 mg/kg | > 100 mg/kg | > 300 mg/kg |  |  | 
CN1C(=O)CN=C(c2ccccc2)c2cc(Cl)ccc21 [DIAZEPAM] | 1.4 mg/kg | 1.8 mg/kg |  |  | 2 mg/kg | 2.6 mg/kg

Reference: ChEMBL document CHEMBL1141916, “Synthesis and anticonvulsant activity of new 2-substituted-5-(2-benzyloxyphenyl)-1,3,4-oxadiazoles” (Bioorg Med Chem Lett, 2005)
